Assay results as given in patent publication US20150320705A1, “METHOD OF INHIBITING OR TREATING AMYOTROPHIC LATERAL SCLEROSIS WITH PHENOXYALKYLCARBOXYLIC ACIDS” (priority 2014, published 2015).

How the values were obtained:
VAPB Drosophila mutants = experiment: Evaluation of anti-ALS activity on VAPB Drosophila mutants (viability); format: in vivo; settings: VAPB mutant flies; for adult flies observed from seeded larvae: 3 replicates for riluzole and vitamin D (45 larvae seeded), 8 for MN-001 (120 larvae seeded)
SOD deficient flies = format: in vivo, Drosophila; settings: flies with interfered SOD gene, MN-001 tested at 0.08 mM, 0.8 mM, 8 mM (DMSO), FIG. 3
Procedure: Drosophila males will be collected and keep on fly food for 24 h. Then flies will be transferred to vials containing 3-mm paper filter disks saturated with 250 μl of 1% sucrose containing 2 mM paraquat or 1% sucrose, 2 mM paraquat and the tested compound. The vials will be stored at 25° C. in the dark, and flies are enumerated after 24 h.
Three replicas for each concentration will be performed in the same day and three replicas of the assay will be performed in different days.
The experiment includes the analysis of four compound concentrations (10, 100, 250 and 1000 μM) and will evaluate 360 flies for each concentration (8 replicates×3 days with 15 flies each one). Resistance to paraquat treatment will be indicative of positive activity of the compound tested. See, FIG. 2.
MN-001 was tested at concentrations of 0.08 mM, 0.8 mM, 8 mM (DMSO).

For `Nc1nc2ccc(OC(F)(F)F)cc2s1` [riluzole], the “adult flies observed from seeded larvae” value (VAPB Drosophila mutants) was “No adult flies were observed”.
In the case of vitamin E, the “survival (or survivorship) percentages after paraquat exposure” value (SOD deficient flies) is reported as “increased this percentage”.
`CCCc1c(SCCCOc2ccc(C(C)=O)c(OCCCC(=O)O)c2CCC)ccc(C(C)=O)c1O` [MN-001] was tested, and the “adult flies observed from seeded larvae” value (VAPB Drosophila mutants) was 5 of 8 wells displayed adults but only 1 adult in each of them, the viability (VAPB Drosophila mutants; compared with DMSO) was “increase viability in a statistically significant manner” and the “survival (or survivorship) percentages after paraquat exposure” value (SOD deficient flies) was “increased this survival in a dose dependent manner”.
With vitamin D the “adult flies observed from seeded larvae” value (VAPB Drosophila mutants) was 1 adult was observed in one of the 3 replicates.
